Where “and” joins values, the source holds several entries; their conditions need not be identical. Equal entries are not always repeated. Inconclusive results and toxic doses are left out. The calls were made as follows: active = survival T/C of 150% or more; inactive = T/C below 125% in these data.
Test system: P388 leukemia ip, CD2F1 mice, survival T/C
Experiment: NCI In Vivo Anticancer Drug Screen. Data for tumor model P388 Leukemia (intraperitoneal) in CD2F1 (CDF1) mice
Conditions: endpoint: median survival time, higher = longer survival
In short: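 Mice carrying the transplanted tumor received test compound or vehicle. Survival was recorded in each group, and the value is the treated-group measurement divided by that of the vehicle-treated control group.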

[1] = dose: 100.0 mg/kg/injection, schedule: Q04DX002 (ip), vehicle: saline with Tween-80
[2] = dose: 200.0 mg/kg/injection, schedule: Q04DX002 (ip), vehicle: saline with Tween-80
[3] = dose: 400.0 mg/kg/injection, schedule: Q04DX002 (ip), vehicle: saline with Tween-80
[4] = dose: 100.0 mg/kg/injection, schedule: Q04DX003 (ip), vehicle: Klucel (hydroxypropylcellulose) (HPC)
[5] = dose: 200.0 mg/kg/injection, schedule: Q04DX003 (ip), vehicle: Klucel (hydroxypropylcellulose) (HPC)
[6] = dose: 400.0 mg/kg/injection, schedule: Q04DX003 (ip), vehicle: Klucel (hydroxypropylcellulose) (HPC)
[7] = dose: 50.0 mg/kg/injection, schedule: Q01DX005 (ip), vehicle: saline with Tween-80
[8] = dose: 100.0 mg/kg/injection, schedule: Q01DX005 (ip), vehicle: saline with Tween-80
[9] = dose: 200.0 mg/kg/injection, schedule: Q01DX005 (ip), vehicle: saline with Tween-80
[10] = dose: 25.0 mg/kg/injection, schedule: Q01DX005 (ip), vehicle: Klucel (hydroxypropylcellulose) (HPC)
[11] = dose: 50.0 mg/kg/injection, schedule: Q01DX005 (ip), vehicle: Klucel (hydroxypropylcellulose) (HPC)
[12] = dose: 100.0 mg/kg/injection, schedule: Q01DX005 (ip), vehicle: Klucel (hydroxypropylcellulose) (HPC)
[13] = dose: 12.5 mg/kg/injection, schedule: Q01DX009 (ip), vehicle: saline
[14] = dose: 25.0 mg/kg/injection, schedule: Q01DX009 (ip), vehicle: saline
[15] = dose: 50.0 mg/kg/injection, schedule: Q01DX009 (ip), vehicle: saline

Measured: T/C

O=C(O)c1cc(F)cc(C(=O)O)c1
inactive: dose: 50.0 mg/kg/injection, schedule: Q04DX003 (ip), vehicle: suspension in saline 109 % of control | dose: 100.0 mg/kg/injection, schedule: Q04DX003 (ip), vehicle: suspension in saline 104 % of control | dose: 200.0 mg/kg/injection, schedule: Q04DX003 (ip), vehicle: suspension in saline 110 % of control

C=COC(=O)C(Cc1cc(OC)c(OC)c(OC)c1)NC(=O)OCc1ccccc1 (configuration not stated)
inactive: [1] 102 % of control | [2] 101 % of control | [3] 96 % of control

CC(C)=CC(=O)OC(=O)C=C(C)C
inactive: dose: 100.0 mg/kg/injection, schedule: Q04DX003 (ip), vehicle: other 100 % of control | dose: 200.0 mg/kg/injection, schedule: Q04DX003 (ip), vehicle: other 100 % of control | dose: 400.0 mg/kg/injection, schedule: Q04DX003 (ip), vehicle: other 100 % of control

O=C(O)C1=CC2C=C(Cl)C=CC2OC1=O (configuration not stated)
inactive: dose: 60.0 mg/kg/injection, schedule: Q01DX005 (ip), vehicle: saline with Tween-80 100 % of control | dose: 120.0 mg/kg/injection, schedule: Q01DX005 (ip), vehicle: saline with Tween-80 100 % of control

O=[N+]([O-])Nc1ccccn1
inactive: dose: 100.0 mg/kg/injection, schedule: Q04DX002 (ip), vehicle: saline 114 % of control | dose: 200.0 mg/kg/injection, schedule: Q04DX002 (ip), vehicle: saline 110 % of control | dose: 400.0 mg/kg/injection, schedule: Q04DX002 (ip), vehicle: saline 97 % of control

CC(C)(C)SC(=O)C1(C(OC(=O)c2ccccc2)c2ccccc2)CC1 (configuration not stated)
inactive: [4] 96 % of control | [5] 100 % of control | [6] 89 % of control

COc1ccc(C=NCCN=Cc2ccc(OC)cc2)cc1
inactive: dose: 25.0 mg/kg/injection, schedule: Q04DX003 (ip), vehicle: saline with Tween-80 100 % of control | dose: 50.0 mg/kg/injection, schedule: Q04DX003 (ip), vehicle: saline with Tween-80 109 % of control | dose: 100.0 mg/kg/injection, schedule: Q04DX003 (ip), vehicle: saline with Tween-80 108 % of control | dose: 200.0 mg/kg/injection, schedule: Q04DX003 (ip), vehicle: saline with Tween-80 110 % of control

CCOP(=O)(CC(=O)NCc1cc(C(C)(C)C)c(O)c(C(C)(C)C)c1)OCC
inactive: dose: 50.0 mg/kg/injection, schedule: Q01DX009 (ip), vehicle: saline with Tween-80 100 % of control | dose: 100.0 mg/kg/injection, schedule: Q01DX009 (ip), vehicle: saline with Tween-80 93 % of control | dose: 200.0 mg/kg/injection, schedule: Q01DX009 (ip), vehicle: saline with Tween-80 96 % of control

Cn1c(=O)c2c(N=NC(N)=S)c(O)[nH]c2n(C)c1=O
inactive: [4] 100 % of control | [5] 108 % of control | [6] 96 % of control

CCOC(=O)C1(C(O)(C2CC2)C2(C(=O)OCC)CC2)CC1
inactive: [7] 100 % of control | [8] 102 % of control | [9] 100 % of control

COc1ccc2c(C)cc(N/N=C/c3ccccn3)nc2c1
inactive: [10] 102 % of control and 112 % of control | [11] 104 % of control and 118 % of control and 93 % of control | [12] 104 % of control and 112 % of control

C=C1C2CC[C@H]3C4(C)CCCC(C)(C(=O)O)[C@H]4CCC3(C2)[C@@H]1OC(C)=O (some centres not stated)
inactive: dose: 3.5 mg/kg/injection, schedule: Q01DX005 (ip), vehicle: Klucel (hydroxypropylcellulose) (HPC) 108 % of control | dose: 7.0 mg/kg/injection, schedule: Q01DX005 (ip), vehicle: Klucel (hydroxypropylcellulose) (HPC) 97 % of control | dose: 14.0 mg/kg/injection, schedule: Q01DX005 (ip), vehicle: Klucel (hydroxypropylcellulose) (HPC) 100 % of control | [10] 88 % of control | dose: 28.0 mg/kg/injection, schedule: Q01DX005 (ip), vehicle: Klucel (hydroxypropylcellulose) (HPC) 94 % of control | [11] 90 % of control | [12] 90 % of control

O=C(CCCN1CCC(O)(c2cccc(C(F)(F)F)c2)CC1)c1ccc(F)cc1
inactive: dose: 18.75 mg/kg/injection, schedule: Q04DX003 (ip), vehicle: Klucel (hydroxypropylcellulose) (HPC) 108 % of control | dose: 37.5 mg/kg/injection, schedule: Q04DX003 (ip), vehicle: Klucel (hydroxypropylcellulose) (HPC) 112 % of control | dose: 75.0 mg/kg/injection, schedule: Q04DX003 (ip), vehicle: Klucel (hydroxypropylcellulose) (HPC) 88 % of control

CCCN(CCC)C(=O)C(c1ccccc1)C1(O)CCCCC1 (configuration not stated)
inactive: [11] 100 % of control | [12] 100 % of control | dose: 200.0 mg/kg/injection, schedule: Q01DX005 (ip), vehicle: Klucel (hydroxypropylcellulose) (HPC) 97 % of control

S=c1n(-c2ccc(Cl)cc2)c2nc3ccccc3nc(/c2=N\Nc2cc(Cl)ccc2Cl)n1-c1ccccn1
inactive: [7] 103 % of control | [8] 100 % of control

Cc1nsc(N)n1
inactive: dose: 6.25 mg/kg/injection, schedule: Q01DX009 (ip), vehicle: saline 100 % of control | dose: 6.25 mg/kg/injection, schedule: Q01DX009 (ip), vehicle: suspension in saline 94 % of control | [13] 100 % of control and 98 % of control | dose: 12.5 mg/kg/injection, schedule: Q01DX009 (ip), vehicle: suspension in saline 101 % of control | [14] 100 % of control and 98 % of control | dose: 25.0 mg/kg/injection, schedule: Q01DX009 (ip), vehicle: suspension in saline 102 % of control | [15] 99 % of control and 98 % of control | dose: 50.0 mg/kg/injection, schedule: Q01DX009 (ip), vehicle: suspension in saline 103 % of control

Cc1ccc(S(=O)(=O)N/N=C2\CC/C(=N\NS(=O)(=O)c3ccc(C)cc3)[C@@H]3CC=CC[C@H]23)cc1
inactive: [7] 92 % of control | [8] 92 % of control | [9] 89 % of control

O=C(Oc1ccc[nH]c1=O)c1ccc([N+](=O)[O-])cc1
inactive: [13] 106 % of control and 110 % of control | [14] 101 % of control and 110 % of control | [15] 102 % of control and 103 % of control and 118 % of control | dose: 100.0 mg/kg/injection, schedule: Q01DX009 (ip), vehicle: saline 105 % of control and 118 % of control | dose: 200.0 mg/kg/injection, schedule: Q01DX009 (ip), vehicle: saline 100 % of control and 110 % of control and 91 % of control | dose: 400.0 mg/kg/injection, schedule: Q01DX009 (ip), vehicle: saline 101 % of control and 110 % of control

Cc1cc2c(cc1C)NC1=C(N2)OC(c2cccc(O)c2)C1=O (configuration not stated)
inactive: dose: 7.5 mg/kg/injection, schedule: Q01DX005 (ip), vehicle: Klucel (hydroxypropylcellulose) (HPC) 104 % of control | dose: 15.0 mg/kg/injection, schedule: Q01DX005 (ip), vehicle: Klucel (hydroxypropylcellulose) (HPC) 101 % of control | dose: 30.0 mg/kg/injection, schedule: Q01DX005 (ip), vehicle: Klucel (hydroxypropylcellulose) (HPC) 110 % of control

c1ccc2c(c1)C1OC2c2cnccc21 (configuration not stated)
inactive: [1] 95 % of control | [2] 96 % of control | [3] 93 % of control

COc1cc(C(=O)c2cc3c(cc2C)OCO3)cc(OC)c1OC
inactive: dose: 25.0 mg/kg/injection, schedule: Q01DX009 (ip), vehicle: Klucel (hydroxypropylcellulose) (HPC) 109 % of control | dose: 50.0 mg/kg/injection, schedule: Q01DX009 (ip), vehicle: Klucel (hydroxypropylcellulose) (HPC) 113 % of control

CC1(C)CC(C#N)CC(C)(C)N1O
inactive: [4] 100 % of control

O=C(NCCN1CCN2Cc3[nH]c4ccccc4c3CC2C1)c1ccc(Cl)cc1 (configuration not stated)
inactive: dose: 60.0 mg/kg/injection, schedule: Q01DX005 (ip), vehicle: saline 102 % of control | dose: 120.0 mg/kg/injection, schedule: Q01DX005 (ip), vehicle: saline 97 % of control | dose: 240.0 mg/kg/injection, schedule: Q01DX005 (ip), vehicle: saline 90 % of control

— PubChem BioAssay AID330 (DTP/NCI, 2004)
